Results reported in article PMC5542402 (Combinatorial chemistry & high throughput screening, 2016).
pIC50: −log10 of the molar value. Like-named read-outs stand apart in the source and are kept apart here.

Legend:
PhoP [1] = target: T1, PhoP (Mycobacterium tuberculosis, UniProt P71814, D106C); type: binding
PhoP [2] = target: T1, PhoP; type: binding; remark: listed apart in the source

## CCCCCCCCCC(CC)c1ccc(S(=O)(=O)O)cc1 (centres unmarked) [NCGC00244580]
PhoP [1]
  pIC50: 4.45

## NCGC00161636
PhoP [2]
  pIC50: 4.81
